Counter-ions that a name gives are not always drawn. Marks after values point to notes of the source that are not given here.
How the values were obtained:
[1] = tested on: adenosine A1 and A2 receptors; conditions: selectivity A1 over A2; cited from earlier work
[2] = tested on: I1 imidazoline receptor; conditions: comparison within marsanidine, 7-Me-, 7-Cl-, 7-F-marsanidine; cited from earlier work
[3] = tested on: α2-adrenoreceptors; conditions: comparison within marsanidine, 7-Me-, 7-Cl-, 7-F-marsanidine; cited from earlier work
[4] = tested on: Npas2-LacZ expression of mouse BMSC; assay: High throughput screening of LOPAC 1280 compounds for Npas2-LacZ expression (Beta-Glo β-galactosidase assay); assay type: cell-based; conditions: compound 1 μM, 48 hours, BMSC from Npas2−/− mice carrying LacZ reporter
Procedure: Femur BMSC harvested from Npas2−/− mice were previously characterized for LacZ expression, which was used in this study for high throughput, unbiased screening of Library of Pharmacologically Active Compounds (LOPAC®^1280). (Hassan, N., et al., (2017) PLoS One 12, e0183359). Using 384-well plates, each well was filled with 25 μl non-phenol red DMEM containing 10% FBS and 1% PS, and added 50 nL of LOPAC®^1280 compound (final concentration: 1 μM) using 500 nL pin tool (Biomek FX, Beckman Coulter, Indianapolis, Ind.). To each well, BMSC (Npas2-LacZ) were placed as 1500 cells/25 μl suspension and incubated at room temperature for 1 hour, followed by incubation at 37° C. and 5% CO2 for 48 hours. To measure Npas2-LacZ expression, β-galactosidase activity was measured using a commercially available assay (Beta-Glo Assay System, Promega, Summerville, Calif.).
The Npas2-LacZ expression data were uploaded on an online data analysis tool (CDD Vault, Collaborative Drug Discovery, Inc, Burlingame, Calif.), on which data were normalized and Z-factor was calculated. For this study, hit compounds were selected as Z-score >2.5 or <−2.5.

[5] = tested on: implant osseointegration in mouse femur; assay: Implant push-out test of Ti implants placed in mouse femur; assay type: in vivo; conditions: 75 mg/Kg daily IP for 2 weeks, machined or B-DAE-DCD surface implants, vs vehicle 0.9% NaCl
Description: Male 10˜15-wk-old C57Bl/6J mice underwent surgical placement of Ti implants. After anesthesia with isoflurane inhalation, the distal femur was accessed via medial parapatellar arthrotomy with lateral displacement of the quadriceps-patellar complex. After locating the femoral intercondylar notch, the femoral intramedullary canal was manually reamed with a 25-gauge needle for entry into the canal and further reamed with a 23-gauge needle. A Ti implant was inserted in a retrograde fashion into each femur of a mouse. The Ti implant was clipped at 4 mm and further inserted 4 mm using a periodontal probe. The quadriceps-patellar complex was reduced to its anatomic position, and the surgical site was closed using Vicryl 5-0 sutures. Carprofen (5.0 mg/kg) (Rimadyl, Zoetis US, Parsippany, N.J.) was administered subcutaneously at the time of surgery and every 24 hours for 2 days after surgery.
Mice were euthanized and femur bones were harvested at the predetermined healing time. […] The mechanical withholding strength was measured by pushing the implant out from the femur bone marrow using a custom-made stainless-steel pushing rod mounted on a 1000-N load cell (Instron, Canton, Mass.). The axial load on the implant was applied at a cross-head speed of 1 mm/min, and displacement of the implant and the load were recorded. […]

For `CCCn1c(=O)c2[nH]c(-c3ccccc3)nc2n(CCC)c1=O` [1,3-dipropyl-8-phenylxanthine], the “fold more potent at A1 receptors than at A2 receptors” value [1] is given as “about 23 fold”.

In the case of `Clc1cccc2cnn(N=C3NCCN3)c12` [7-Cl-marsanidine], the “affinity for the I1 imidazoline receptor (rank among marsanidine analogs)” value [2] is listed as “lower affinity for the I1 imidazoline receptor” and the “affinity for α2-adrenoreceptors (rank among marsanidine analogs)” value [3] is listed as “higher affinity for α2-adrenoreceptors”.

In the case of `Fc1cccc2cnn(N=C3NCCN3)c12` [7-F-marsanidine], the “affinity for the I1 imidazoline receptor (rank among marsanidine analogs)” value [2] is listed as “higher affinity for the I1 imidazoline receptor than 7-Cl-marsanidine” and the “affinity for α2-adrenoreceptors (rank among marsanidine analogs)” value [3] is listed as “comparable affinity for α2-adrenoreceptors”.

In the case of `Cc1cccc2cnn(N=C3NCCN3)c12` [7-Me-marsanidine], the “affinity for the I1 imidazoline receptor (rank among marsanidine analogs)” value [2] is listed as “highest affinity for the I1 imidazoline receptor” and the “affinity for α2-adrenoreceptors (rank among marsanidine analogs)” value [3] is listed as “low affinity for α2-adrenoreceptors”.

In the case of `CCCn1c(=O)c2[nH]c(-c3ccc(Cl)cc3N)nc2n(CCC)c1=O` [8-(2-amino-4-chlorophenyl)-1,3-dipropylxanthine], the “fold more potent at A1 receptors than at A2 receptors” value [1] is listed as ~400 fold.

For `Cn1c(=O)c2[nH]c(-c3ccc(S(=O)(=O)O)cc3)nc2n(C)c1=O` [8-(p-Sulfophenyl)-theophylline, 8-(p-sulfophenyl) theophylline], the “% Activity (activity against negative controls in LOPAC 1280 screening)” value (shortened to “% Activity”) [4] was 104.0%.

With `O=C1CCc2cc(OCCCCc3nnnn3C3CCCCC3)ccc2N1` [Cilostazol (MS-1505230), 6-[4-(1-cyclohexyl-1H-tetrazol-5-yl)-butoxy]-3,4-dihydro-2(1H)-quinolinone] the “% Activity” value [4] was 26.2%.

For `Cc1nccc2c1[nH]c1ccccc12` [Harmane (MS-1500866), 1-Methyl-9H-pyrido[3,4-b]indole], the “% Activity” value [4] was −15.6** %.

For `C[C@](N)(Cc1ccc(O)c(O)c1)C(=O)O` [Methyldopa (L, −), L-α-Methyl-3,4-dihydroxyphenylalanine], the “% Activity” value [4] was 18.1% and the implant push-out value [5] was “greater push-out value than vehicle treated control mice”.

With `CC[C@@H](CO)NC(=O)[C@@H]1C=C2c3cccc4c3c(cn4C)C[C@H]2N(C)C1` [Methysergide maleate, 1-methyl-D-lysergic acid butanolamide] the “% Activity” value [4] was 28.6%.

In the case of `O=c1ccc2c(OCCCCc3ccccc3)c3ccoc3cc2o1` [Psora-4, 5-(4-phenylbutoxy)psoralen], the “% Activity” value [4] was 35.3%.

In the case of `c1ccc2c(c1)cnn2N=C1NCCN1` [marsanidine], the “affinity for the I1 imidazoline receptor (rank among marsanidine analogs)” value [2] is listed as “lowest affinity for the I1 imidazoline receptor” and the “affinity for α2-adrenoreceptors (rank among marsanidine analogs)” value [3] is listed as “highest affinity for α2-adrenoreceptors”.

From US20210393857A1, “SMALL MOLECULE DRUGS AND METHODS TO ACCELERATE OSSEOINTEGRATION” (The Regents of the University of California, priority 2018, published 2021)
